Results: patent publication US12319694B2, “Heterocyclic nitrogen-containing purine derivatives, pharmaceutical preparations containing these derivatives and their use in neuroprotection” (UNIVERZITA PALACKEHO, priority 2019, dated 2025)

What was measured:
[1] = tested on: SH-SY5Y human neuroblastoma cell line (differentiated phenotype); experiment: Calcein AM viability test on ATRA-differentiated SH-SY5Y cells; assay type: cell-based; settings: 24 h, DMSO control = 100%
Protocol: (§1) The SH-SY5Y human neuroblastoma cell line obtained as kind gift from Walter d'Acunto (originally purchased from ATCC—American Type Culture Collection (Manassas, VA, USA) was cultivated in Dulbecco's modified Eagle's Medium and Ham's F12 Nutrient Mixture (DMEM:F-12, 1:1), supplemented with 10% fetal bovine serum (FBS) and 1% penicillin and streptomycin at 37° C. in a humidified atmosphere 5% CO2, 95% air in passage limit up to ATCC+15. The assay was performed in 96-well microplate with 7000 SH-SY5Y cells per well. Next day, SH-SY5Y underwent all-trans retinoic acid (ATRA)-differentiation for 48 h (ATRA 10 μM). After 48 h, old DMEM/F12 media was removed by fresh media containing tested compounds at 0.1, 1 and 10 μM concentrations for 24 h. The tested compounds were dissolved in DMSO were added into the medium. The maximum concentration of DMSO in media was kept below 0.1% (v/v). The cell viability was measured by Calcein AM (1 mg/ml ThermoFisher) viability assay. Solution of Calcein AM in PBS (0.5 uM) was pipetted to cells and incubated for 50 minutes. After that the fluorescence was measured at 488/517 nm (excitation/emission) using microplate reader Infinite M200 (TECAN). Calcein AM assay is based on the dye-intracellular-esterase cleavage of non-fluorescent dye (Calcein AM) by living cells to fluorescent dye (Calcein), while dyeing cells that lose such ability. The values in Table 4 show % of viability, relative to control of all tested compounds. The control (medium with DMSO, <0.1% (v/v)) was postulated as 100% viability (see the first line of the table).

[2] = tested on: SH-SY5Y human neuroblastoma cell line (differentiated phenotype); experiment: Viability test, salsolinol-induced model of Parkinson's disease in differentiated SH-SY5Y (Calcein AM); assay type: cell-based; settings: 24 h
Protocol: as §1
Similarly, to the previous test the assay was performed in 96-well microplates with 7000 SH-SY5Y cells per well. Day after the seeding of cells, SH-SY5Y underwent all-trans retinoic acid (ATRA)-differentiation for 48 h (ATRA 10 μM). After 48 h, old DMEM/F12 media was removed by fresh media containing 500 μM dopaminergic neurotoxin Salsolinol (SAL) without or with tested compounds at 0.1, 1 and 10 μM concentrations. […] After 24 h the cell viability was measured by Calcein AM viability assay.

[3] = tested on: SH-SY5Y human neuroblastoma cell line; experiment: Oxidative stress measurement (dihydroethidium, superoxide) in SH-SY5Y, salsolinol-induced model of PD; assay type: cell-based; settings: 6 h; for activity at 1 µM / activity at 10 µM: Homo sapiens, SH-SY5Y, read-out: Oxidative stress (% of control)
Protocol: The assay was performed in 96-well microplate with 7000 cells/well. Next day, SH-SY5Y underwent differentiation protocol for 48 h see above. Treatment procedure remained the same as in previous section (Cell treatment and viability/cytotoxicity assays). Additionally, oxidative stress (OS) inducers such as 6-hydroxydopamine (6-OHDA) and glutamate (Glu) alone were used as […]. Negative controls determined threshold of excessive OS. […] After 30 minutes, DHE was read at 500 nm/580 nm (excitation/emission). DHE is cell permeable dye which is selective toward superoxide radical detection.

[4] = Radical scavenging activity by ORAC assay; settings: NAUC relative to trolox; mean ± SD (n = 3)
Protocol: The ability of compounds to scavenge free radicals in vitro was determined by Oxygen Radical Absorbance Capacity (ORAC) method. In brief, fluorescein (100 μL, […]) and 25 μL of tested compound solution were added into each working well in a 96-well microplate preincubated at 37° C. Thereafter, 25 μL of 250 mM 2,2′-azobis(2-amidino-propan)dihydrochloride (AAPH) was quickly added, microplate was shaken for 5 s and the fluorescence (Ex. 485 nm, Em. 510 nm) was read every 3 min over 90 min by using microplate reader Infinite 200 (TECAN, Switzerland). The NAUC value (Net Area Under Curve) was used to express antioxidant activity relative to trolox (hydrophilic equivalent of vitamin E postulated as a standard). Substances with an ORAC value greater than 0 actively trap free radicals.

Nrf2 = experiment: Activation of Nrf2-dependent expression, EpRE-LUX reporter cell line; assay type: cell-based; settings: 24 h; tested at 100, 10, 1 and 0.1 μM, concentration of the printed value not stated; mean ± SD (n = 3)
Protocol: The ability of compounds to activate Nrf2-dependent expression was determined by EpRE-LUX reporter cell line. In brief, compounds at 100, 10, 1 and 0.1 μM concentrations of the tested compounds were incubated for 24 h with the cells. After cells lysis (10 mM Tris, 2 mM DTT), a buffer containing 0.2 mM luciferin was added to start luminescent reaction. The increase in luminescence was measured with microplate reader Infinite M200 (TECAN). Compounds with Nrf2 value higher than 0 are strong Nrf2 activators and thus will be useful agents for the treatment of neurodegenerative diseases associated with oxidative stress.

[5] = Calcein AM viability test on ATRA-differentiated SH-SY5Y cells; assay type: cell-based, human; settings: human, ATRA-differentiated SH-SY5Y neuroblastoma cells, DMSO control = 100%, read-out: % of viability, relative to control; for viability at 24 h, 0.1 µM: 0.1 μM compound; for viability at 24 h, 1 µM: 1 μM compound; for viability at 24 h, 10 µM: 10 μM compound
Protocol: as §1

[6] = 0.1 μM compound with 500 μM Salsolinol
[7] = 1 μM compound with 500 μM Salsolinol
[8] = 10 μM compound with 500 μM Salsolinol

With c1ccc(Cn2cnc3c(N4CCC4)nc(N4CCC4)nc32)cc1 [Compound 1] the “% of viability, relative to control” value ([1]; 0.1 μM compound) was 104.80%, the “% of viability, relative to control” value ([1]; 1 μM compound) was 114.03% and the “% of viability, relative to control” value ([1]; 10 μM compound) was 145.94%. The “Neuroprotective effect (% of control)” value [2, 6] was “N/A (N/A = no protection)”, the “Neuroprotective effect (% of control)” value [2, 7] was 3.03 % of control and the “Neuroprotective effect (% of control)” value [2, 8] was 26.08 % of control. For the same compound, the “Oxidative stress (% of control)” value ([3]; 1 μM compound with SAL 500 μM) was 124.48 % of control, the “Oxidative stress (% of control)” value ([3]; 10 μM compound with SAL 500 μM) was 157.22 % of control and the “ORAC (compound/trolox)” value [4] was 0.052 ± 0.002 compound/trolox. The “Nrf2 (relative luminiscence)” value (Nrf2) was 0.27 ± 0.06 relative luminiscence.

In the case of Oc1ccc(Cn2cnc3c(N4CCCC4)nc(N4CCCC4)nc32)cc1 [Compound 30, 9-(4-hydroxybenzyl)-2,6-di(pyrrolidin-1-yl)-9H-purine], the viability at 24 h, 0.1 µM [5] is reported as 99.5%, the viability at 24 h, 1 µM [5] is reported as 111% and the viability at 24 h, 10 µM [5] is reported as 123%. The “Neuroprotective effect (% of control)” value [2, 6] was 10.62 % of control, the “Neuroprotective effect (% of control)” value [2, 8] was 26.41 % of control and the activity at 1 µM ([3]; 1 μM compound with SAL 500 μM) was 95.9%. For the same compound, the activity at 10 µM ([3]; 10 μM compound with SAL 500 μM) was 97.4%, the “reduction of oxidative stress induced by Salsolinol (in words)” value ([3]; SAL 500 μM, compounds 1 and 10 μM) was “highest potency toward the reduction of oxidative stress” and the “ORAC (compound/trolox)” value [4] was 0.422 ± 0.034 compound/trolox. The “Nrf2 (relative luminiscence)” value (Nrf2) was 0.29 ± 0.11 relative luminiscence.

In the case of COc1ccccc1Cn1cnc2c(N3CCCC3)nc(N3CCCC3)nc21 [Compound 35], the “% of viability, relative to control” value ([1]; 0.1 μM compound) is reported as 104.22%, the “% of viability, relative to control” value ([1]; 1 μM compound) is reported as 118.77% and the “% of viability, relative to control” value ([1]; 10 μM compound) is reported as 135.02%. The “Neuroprotective effect (% of control)” value [2, 6] was 1.19 % of control, the “Neuroprotective effect (% of control)” value [2, 7] was 13.01 % of control and the “Neuroprotective effect (% of control)” value [2, 8] was 19.11 % of control. For the same compound, the “Oxidative stress (% of control)” value ([3]; 1 μM compound with SAL 500 μM) was 161.97 % of control, the “Oxidative stress (% of control)” value ([3]; 10 μM compound with SAL 500 μM) was 214.57 % of control and the “ORAC (compound/trolox)” value [4] was 0.033 ± 0.001 compound/trolox. For the same compound, the “Nrf2 (relative luminiscence)” value (Nrf2) was 0.04 ± 0.00 relative luminiscence.

In the case of COc1cccc(Cn2cnc3c(N4CCCC4)nc(N4CCCC4)nc32)c1 [Compound 42], the “% of viability, relative to control” value ([1]; 0.1 μM compound) is reported as 112.01%, the “% of viability, relative to control” value ([1]; 1 μM compound) is reported as 127.94% and the “% of viability, relative to control” value ([1]; 10 μM compound) is reported as 138.52%. The “Neuroprotective effect (% of control)” value [2, 6] was 6.86 % of control, the “Neuroprotective effect (% of control)” value [2, 7] was 15.44 % of control and the “Neuroprotective effect (% of control)” value [2, 8] was 20.05 % of control. For the same compound, the “Oxidative stress (% of control)” value ([3]; 1 μM compound with SAL 500 μM) was 171.55 % of control, the “Oxidative stress (% of control)” value ([3]; 10 μM compound with SAL 500 μM) was 173.94 % of control and the “ORAC (compound/trolox)” value [4] was 0.029 ± 0.002 compound/trolox. The “Nrf2 (relative luminiscence)” value (Nrf2) was 0.00 ± 0.00 relative luminiscence.

Compound c1ccc(Cn2cnc3c(N4CCCC4)nc(N4CCCCC4)nc32)cc1 [Compound 77, 9-Benzyl-2-(piperidin-1-yl)-6-(pyrrolidin-1-yl)-9H-purine] has a viability at 24 h, 0.1 µM [5] of 107%, a viability at 24 h, 1 µM [5] of 118% and a viability at 24 h, 10 µM [5] of 117%. The “Neuroprotective effect (% of control)” value [2, 6] was 4.64 % of control, the “Neuroprotective effect (% of control)” value [2, 7] was 12.11 % of control and the “Neuroprotective effect (% of control)” value [2, 8] was 13.8 % of control. The activity at 1 µM ([3]; 1 μM compound with SAL 500 μM) was 118%, the activity at 10 µM ([3]; 10 μM compound with SAL 500 μM) was 127% and the “ORAC (compound/trolox)” value [4] was 0.028 ± 0.001 compound/trolox. The “Nrf2 (relative luminiscence)” value (Nrf2) was 0.16 ± 0.04 relative luminiscence.

c1ccc(Cn2cnc3c(N4CCCCC4)nc(N4CCCC4)nc32)cc1 [Compound 78, 9-Benzyl-6-(piperidin-1-yl)-2-(pyrrolidin-1-yl)-9H-purine] showed a viability at 24 h, 0.1 µM [5] of 106%, a viability at 24 h, 1 µM [5] of 120% and a viability at 24 h, 10 µM [5] of 134%. The “Neuroprotective effect (% of control)” value [2, 6] was “N/A (N/A = no protection)”, the “Neuroprotective effect (% of control)” value [2, 7] was 17.95 % of control and the “Neuroprotective effect (% of control)” value [2, 8] was “N/A (N/A = no protection)”. The “Oxidative stress (% of control)” value ([3]; 10 μM compound with SAL 500 μM) was “OS level reaching threshold of negative controls”, the activity at 1 µM ([3]; 1 μM compound with SAL 500 μM) was 136% and the activity at 10 µM ([3]; 10 μM compound with SAL 500 μM) was 238%. For the same compound, the “ORAC (compound/trolox)” value [4] was 0.071 ± 0.005 compound/trolox and the “Nrf2 (relative luminiscence)” value (Nrf2) was 0.23 ± 0.03 relative luminiscence.
